This experiment has as its target T1, HCMV UL141 (Human cytomegalovirus, UniProt Q6RJQ3).
T1 construct: we expressed and purified the full-length recombinant UL141 (amino acids 30–300); made in house
Description: biochemical. Type of experiment: binding. Here is the method:
To prepare HCMV UL141 for binding studies, biotinylation was performed using the BiotinTag Micro Biotinylation Kit (Sigma-Aldrich). Purified UL141 protein (50 μg in 50 μl) was mixed with 50 μl of BiotinTag reaction buffer provided in the kit. Sulfo-NHS-Biotin reagent was freshly prepared by dissolving the vial contents in 1 ml of sterile water. A calculated volume of the biotin reagent was added to achieve a 20:1 M excess of biotin to protein. The reaction mixture was incubated for 30 min at room temperature with gentle mixing to ensure efficient labeling. Following incubation, unreacted biotin was removed using the desalting column included in the kit. The biotinylated UL141 protein was eluted in 50 mM Hepes, pH 7.5, 150 mM NaCl. Biotin incorporation was verified using a colorimetric biotin quantification assay (e.g., HABA assay). The biotinylated protein was then quantified spectrophotometrically using a NanoDrop instrument and concentrated to the desired level for Biacore or ELISA binding studies. The biotinylated protein was stored at 4 °C for short-term use or −80 °C for long-term storage to maintain stability.
The sensor surface of an SA chip (Cytiva) was preconditioned with HBS-EP buffer (10 mM Hepes, 150 mM NaCl, 3 mM EDTA, 0.005% Tween-20) to stabilize the baseline and remove any loosely bound streptavidin. Before use, the buffer was filtered through a 0.2 μm polystyrene filter and degassed under vacuum for 10 min to eliminate air bubbles. Biotinylated HCMV UL141 was immobilized on the SA chip, maintaining biotinylation at 0.5 to 1.5 mol per mole of protein. Excess biotin was removed via gel filtration. UL141 was injected at 30 μl/min, achieving maximum immobilization (4000–6000 RU), followed by washing with running buffer. Residual unbound proteins were optionally removed with a 2 M NaCl pulse. To ensure optimal SPR signal detection, which depends on the analyte mass bound to the ligand, relatively high amounts of ligand were immobilized on the sensor chip to achieve a significant response signal upon binding of the small compound. […] Regeneration of the chip surface, when necessary, was performed using 5 mM NaOH. Control injections of zero concentrations and duplicate injections of selected concentrations were included to validate surface regeneration. […]

[1] abbreviates: UL141 immobilized, substance as analyte, 1:1 Langmuir model.
The mark [2] stands for this setting: UL141 immobilized, substance as analyte, 1:1 Langmuir model, listed as cmp 18.

Where “and” joins values, the source holds several entries; their conditions need not be identical. Identical values can stand only once.

T1 sequence (Q6RJQ3 30-300): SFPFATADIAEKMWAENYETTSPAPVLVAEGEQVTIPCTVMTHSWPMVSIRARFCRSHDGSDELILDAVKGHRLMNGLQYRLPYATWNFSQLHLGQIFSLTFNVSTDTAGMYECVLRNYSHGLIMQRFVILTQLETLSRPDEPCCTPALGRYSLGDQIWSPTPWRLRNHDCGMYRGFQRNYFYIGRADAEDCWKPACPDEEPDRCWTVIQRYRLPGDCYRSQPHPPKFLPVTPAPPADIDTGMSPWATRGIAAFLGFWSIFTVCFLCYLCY

On to `CCC1C(O)C(O)CN1Cc1ccc(I)cc1` (stereo not shown) [Compound 18], for which the Kd by setting is: (UL141 immobilized (ligand), substance in solution (analyte), 1:1 Langmuir model, 25 °C) 2.93 µM; (binding to UL141, SPR) 2.93 µM and 2.9 µM. The compound further came in with an Rmax (UL141 immobilized, substance as analyte) of 19. For the same compound, the off-rate (koff) reads like this: under setting [1], 0.157 s⁻¹; under setting [2], “(1.57 ± 0.039) × 10^−1 s^−1”. In addition, the kon by setting is: under setting [1], 53600 M⁻¹ s⁻¹; under setting [2], “(5.36 ± 0.003) × 10^4 M^−1s^−1”.

A word on the Kd: it is a measure of binding affinity in units of concentration. Higher therefore signals weaker binding. The term koff denotes the first-order rate constant of dissociation. In general, kon refers to a measure of how fast the partners come together.
